This note sets out measurements from PubChem BioAssay AID330 (DTP/NCI, 2004).

Values joined by “and” are separate entries in the source; they are usually repeats but may differ in a detail not shown here. Equal entries are not always repeated. Inconclusive results and toxic doses are left out.

The test deals with P388 leukemia ip, CD2F1 mice, survival T/C. Put plainly: NCI In Vivo Anticancer Drug Screen. Data for tumor model P388 Leukemia (intraperitoneal) in CD2F1 (CDF1) mice. The following applies: endpoint: median survival time, higher = longer survival. The method, boiled down: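 Mice carrying the transplanted tumor received test compound or vehicle. Survival was recorded in each group, and the value is the treated-group measurement divided by that of the vehicle-treated control group.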

Setting [1] is: dose: 50.0 mg/kg/injection, schedule: Q01DX005 (ip), vehicle: saline with Tween-80.
[2] abbreviates: dose: 100.0 mg/kg/injection, schedule: Q01DX005 (ip), vehicle: saline with Tween-80.
The mark [3] stands for this setting: dose: 200.0 mg/kg/injection, schedule: Q01DX005 (ip), vehicle: saline with Tween-80.
The mark [4] stands for this setting: dose: 6.25 mg/kg/injection, schedule: Q01DX009 (ip), vehicle: saline with Tween-80.
Where [5] appears, read: dose: 12.5 mg/kg/injection, schedule: Q01DX009 (ip), vehicle: saline with Tween-80.
[6] abbreviates: dose: 60.0 mg/kg/injection, schedule: Q01DX005 (ip), vehicle: saline with Tween-80.
[7] abbreviates: dose: 120.0 mg/kg/injection, schedule: Q01DX005 (ip), vehicle: saline with Tween-80.
[8] abbreviates: dose: 200.0 mg/kg/injection, schedule: Q01DX001 (ip), vehicle: saline with Tween-80.

As for `COc1ccc2c(c1)C(Cc1ccc(Oc3ccc(CC4c5cc(OC)ccc5CC[N+]4(C)C)cc3)cc1)[N+](C)(C)CC2` (stereo unspecified), the T/C (dose: 1.56 mg/kg/injection, schedule: Q04DX003 (ip), vehicle: water) is 107 % of control.
In the case of `C=CC(=NC(C)(C)C)Nc1cccc(Cl)c1`, the T/C is, setting by setting: (dose: 6.25 mg/kg/injection, schedule: Q04DX003 (ip), vehicle: saline) 98 % of control; (dose: 12.5 mg/kg/injection, schedule: Q04DX003 (ip), vehicle: saline) 102 % of control; (dose: 25.0 mg/kg/injection, schedule: Q04DX003 (ip), vehicle: saline) 100 % of control.
For the compound `COc1ccccc1/C=C/C1=C(C)CCC(c2ccccc2OC)C1C` (stereo unspecified), the T/C reads like this: under setting [1], 90 % of control; under setting [2], 89 % of control; under setting [3], 89 % of control.
Turning to `O=C1/C(=C/c2ccc3c(c2)OCO3)C2CCC(N2)/C1=C\c1ccc2c(c1)OCO2`, the T/C is, setting by setting: (dose: 50.0 mg/kg/injection, schedule: Q01DX001 (ip), vehicle: Klucel (hydroxypropylcellulose) (HPC)) 103 % of control; (dose: 100.0 mg/kg/injection, schedule: Q01DX001 (ip), vehicle: Klucel (hydroxypropylcellulose) (HPC)) 96 % of control; (dose: 200.0 mg/kg/injection, schedule: Q01DX001 (ip), vehicle: Klucel (hydroxypropylcellulose) (HPC)) 96 % of control.
On to `COC(=O)c1ccc(C)c(N(CCO)CCO)c1`, for which the T/C by setting is: under setting [1], 104 % of control; under setting [2], 104 % of control; under setting [3], 104 % of control.
As for `CCOC(=O)NC(NC(=O)OCC)c1cccnc1`, the T/C reads like this: (dose: 200.0 mg/kg/injection, schedule: Q04DX003 (ip), vehicle: saline) 94 % of control; (dose: 400.0 mg/kg/injection, schedule: Q04DX003 (ip), vehicle: saline) 101 % of control.
As to `NC1=NC(c2c3ccccc3cc3ccccc23)N=C(Nc2cccc(Cl)c2)N1` (stereo unspecified), the T/C is 107 % of control under setting [4]; 114 % of control under setting [5]; 95 % of control (dose: 50.0 mg/kg/injection, schedule: Q01DX009 (ip), vehicle: saline with Tween-80).
With `CN(C)CC#CCCCS(=O)(=O)c1ccccc1`, the T/C was 97 % of control (dose: 60.0 mg/kg/injection, schedule: Q01DX005 (ip), vehicle: saline) and 99 % of control (dose: 120.0 mg/kg/injection, schedule: Q01DX005 (ip), vehicle: saline).
Regarding `O=C(O)c1ccc2c(c1)S(=O)(=O)NC2=O`, the T/C under setting [6] is 95 % of control; the T/C under setting [7] was 99 % of control; the T/C (dose: 240.0 mg/kg/injection, schedule: Q01DX005 (ip), vehicle: saline with Tween-80) is 101 % of control.
As for `COc1cc(OC)c2c(=O)cc(-c3ccccc3)sc2c1`, the T/C was 100 % of control (dose: 100.0 mg/kg/injection, schedule: Q01DX001 (ip), vehicle: saline with Tween-80); 94 % of control under setting [8]; 95 % of control (dose: 400.0 mg/kg/injection, schedule: Q01DX001 (ip), vehicle: saline with Tween-80).
For `COC(=O)Nc1csc2c1NC(=O)CCCC2`, the T/C is 110 % of control (dose: 200.0 mg/kg/injection, schedule: Q04DX003 (ip), vehicle: Klucel (hydroxypropylcellulose) (HPC)) and 105 % of control (dose: 400.0 mg/kg/injection, schedule: Q04DX003 (ip), vehicle: Klucel (hydroxypropylcellulose) (HPC)).
For `O=C(c1ccccc1)c1c(-c2ccccc2)c(C(=O)c2ccccc2)n2ccccc12`, the T/C is 108 % of control (dose: 50.0 mg/kg/injection, schedule: Q01DX009 (ip), vehicle: Klucel (hydroxypropylcellulose) (HPC)); 105 % of control (dose: 100.0 mg/kg/injection, schedule: Q01DX009 (ip), vehicle: Klucel (hydroxypropylcellulose) (HPC)); 93 % of control (dose: 200.0 mg/kg/injection, schedule: Q01DX009 (ip), vehicle: Klucel (hydroxypropylcellulose) (HPC)).
Consider `COc1cccc2c1C(=O)c1c(O)c3c(c(O)c1C2=O)C[C@@](O)(CO)C[C@@H]3OC1CC(N)C(O)C(C)O1` (stereo partly specified), for which the T/C by setting is: (dose: 0.56 mg/kg/injection, schedule: Q04DX003 (ip), vehicle: water) 109 % of control; (dose: 0.78 mg/kg/injection, schedule: Q01DX009 (ip), vehicle: water) 167 % of control; (dose: 1.13 mg/kg/injection, schedule: Q04DX003 (ip), vehicle: water) 104 % of control; (dose: 1.56 mg/kg/injection, schedule: Q01DX009 (ip), vehicle: water) 167 % of control and 183 % of control; (dose: 2.25 mg/kg/injection, schedule: Q04DX003 (ip), vehicle: water) 109 % of control and 118 % of control; (dose: 4.5 mg/kg/injection, schedule: Q04DX003 (ip), vehicle: water) 115 % of control and 123 % of control. For the same compound, the T/C by setting is: (dose: 6.25 mg/kg/injection, schedule: Q01DX009 (ip), vehicle: water) 88 % of control; (dose: 9.0 mg/kg/injection, schedule: Q04DX003 (ip), vehicle: water) 121 % of control; (dose: 18.0 mg/kg/injection, schedule: Q04DX003 (ip), vehicle: water) 119 % of control and 123 % of control; (dose: 36.0 mg/kg/injection, schedule: Q04DX003 (ip), vehicle: water) 97 % of control.
Take `FC(F)(F)c1cccc(C(Nc2nncs2)Nc2nncs2)c1`: the T/C was 96 % of control under setting [1], 91 % of control under setting [2] and 88 % of control under setting [3].
`O=C1OC(=O)C2C3C=CC(C3)C12` (stereo unspecified): the T/C was 100 % of control (dose: 12.5 mg/kg/injection, schedule: Q01DX009 (ip), vehicle: saline sonified); 100 % of control (dose: 25.0 mg/kg/injection, schedule: Q01DX009 (ip), vehicle: saline sonified); 100 % of control (dose: 50.0 mg/kg/injection, schedule: Q01DX009 (ip), vehicle: saline sonified).
On to `CSC(=S)n1nc(-c2ccccc2)c(N=Nc2cccc(F)c2)c1-c1ccccc1`, for which the T/C runs as follows: (dose: 100.0 mg/kg/injection, schedule: Q04DX002 (ip), vehicle: saline with Tween-80) 100 % of control; (dose: 200.0 mg/kg/injection, schedule: Q04DX002 (ip), vehicle: saline with Tween-80) 97 % of control; (dose: 400.0 mg/kg/injection, schedule: Q04DX002 (ip), vehicle: saline with Tween-80) 87 % of control.
`Cn1c(=O)[nH]c(N)c(C(=O)CCl)c1=O`: the T/C is, setting by setting: under setting [6], 97 % of control; under setting [7], 105 % of control.
Consider `CCN(CC)CCN=c1c(C)nc(C#N)c(N)n1O`, for which the T/C runs as follows: (dose: 10.0 mg/kg/injection, schedule: Q01DX009 (ip), vehicle: saline with Tween-80) 100 % of control and 102 % of control and 105 % of control; (dose: 20.0 mg/kg/injection, schedule: Q01DX009 (ip), vehicle: saline with Tween-80) 100 % of control and 118 % of control and 96 % of control; (dose: 40.0 mg/kg/injection, schedule: Q01DX009 (ip), vehicle: saline with Tween-80) 98 % of control and 103 % of control; (dose: 80.0 mg/kg/injection, schedule: Q01DX009 (ip), vehicle: saline with Tween-80) 98 % of control and 106 % of control.
`Cn1c(=O)c2nc(-c3ccc(Cl)c(Cl)c3)c(-c3ccc(Cl)c(Cl)c3)nc2n(C)c1=O`: the T/C runs as follows: (dose: 3.13 mg/kg/injection, schedule: Q01DX001 (ip), vehicle: saline with Tween-80) 100 % of control; (dose: 6.25 mg/kg/injection, schedule: Q01DX001 (ip), vehicle: saline with Tween-80) 104 % of control; (dose: 12.5 mg/kg/injection, schedule: Q01DX001 (ip), vehicle: saline with Tween-80) 95 % of control; (dose: 25.0 mg/kg/injection, schedule: Q01DX001 (ip), vehicle: saline with Tween-80) 96 % of control; (dose: 50.0 mg/kg/injection, schedule: Q01DX001 (ip), vehicle: saline with Tween-80) 93 % of control; under setting [8], 91 % of control.
As for `C1CCC2[N-]CC3CCCCC3[N-]CC3CCCCC3[N-]CC3CCCCC3[N-]CC2C1.[Cu+2].[O-][Cl+3]([O-])([O-])O` (stereo unspecified), the T/C (dose: 0.78 mg/kg/injection, schedule: Q01DX009 (ip), vehicle: Klucel (hydroxypropylcellulose) (HPC)) is 117 % of control; the T/C under setting [4] is 152 % of control; the T/C (dose: 8.0 mg/kg/injection, schedule: Q01DX009 (ip), vehicle: saline with Tween-80) is 154 % of control; the T/C (dose: 12.5 mg/kg/injection, schedule: Q01DX009 (ip), vehicle: Klucel (hydroxypropylcellulose) (HPC)) is 87 % of control; the T/C under setting [5] was 158 % of control; the T/C (dose: 25.0 mg/kg/injection, schedule: Q01DX009 (ip), vehicle: Klucel (hydroxypropylcellulose) (HPC)) is 87 % of control.
As to `Nc1ccccc1-c1ccccc1N`, the T/C runs as follows: (dose: 60.0 mg/kg/injection, schedule: Q01DX005 (ip), vehicle: suspension in saline) 99 % of control; (dose: 120.0 mg/kg/injection, schedule: Q01DX005 (ip), vehicle: suspension in saline) 103 % of control; (dose: 240.0 mg/kg/injection, schedule: Q01DX005 (ip), vehicle: suspension in saline) 90 % of control.
